Assay results reported in ChEMBL document CHEMBL3228014, “Preparation of the enantiomeric forms of 9-(5-deoxy-alpha-threo-pent-4-enofuranosyl)adenine and 9-(3,5-dideoxy-beta-D-glycero-pent-4-enofuranosyl)adenine and in vitro antileukemic screening” (1979).
Active and inactive are the calls of the source. No cut-off for these calls is given here.

System: L1210
Assay: Antiproliferative activity against mouse L1210 cells assessed as growth inhibition at 50 uM
Format: functional

SMILES	inhibition	inhibition at 50 µM
C=C1O[C@@H](n2cnc3c(N)ncnc32)CC1O (single isomer, unassigned)	inactive	–
C=C1C[C@@H](O)[C@H](n2cnc3c(N)ncnc32)O1	–	50%
C=C1O[C@H](n2cnc3c(N)ncnc32)[C@H](O)[C@H]1O	inactive	–
C=C1O[C@H](n2cnc3c(N)ncnc32)[C@@H](O)[C@@H]1O	inactive	–
C=C1O[C@@H](n2cnc3c(N)ncnc32)[C@H](O)[C@H]1O	inactive	–
